Results reported in US20210228734A1, “CONJUGATES COMPRISING A TEMPERATURE-RESPONSIVE POLYMER AND A LIGAND CAPABLE OF BINDING ERGOSTEROL” (L V PRASAD EYE INSTITUTE, priority 2018, published 2021).

How the values were obtained:
C. albicans SC5314 = test: Minimal inhibitory concentration (MIC), C. albicans SC5314; assay type: cell-based
Procedure: (§1) C. albicans cells, laboratory strain SC5314 or ATCC90028, were cultured on solid BHI (Oxoid) medium at 37° C. for 24 hours and stored at 4° C. for up to one month. Prior to experiments, a colony of C. albicans was sub-cultured into liquid BHI medium overnight at 37° C.
(§2) C. albicans cells, laboratory strain SC5314 or ATCC90028, were cultured on solid BHI (Oxoid) medium at 37° C. for 24 hours and stored at 4° C. for up to one month. Prior to experiments, a colony of C. albicans was sub-cultured into liquid BHI medium overnight at 37° C. Overnight cultures of C. albicans were adjusted to an optical density at 600 nm of 0.1 and incubated with Amphotericin polymers, which were serially diluted 1:2 from 2500-2.44 μg/ml, for 16 hours in a 96 well plate. The concentration of polymer at which there was no visible growth was determined to be the MIC. C. albicans (Robin) ATCC200955, C. tropicalis ATCC200956, A. flavus ATCC16883 and F. keratoplasticum ATCC36031 were similarly cultured on solid Sabrauds (Oxoid) medium at 37° C. for 24 hours and stored at 4° C. for up to one month. Prior to experiments, colonies were sub-cultured into liquid Sabrauds medium overnight at 37° C. All liquid cultures were static apart from A. flavus which was incubated shaking at 100 rpm.

C. albicans ATCC90028 = test: Minimal inhibitory concentration (MIC), C. albicans ATCC90028; assay type: cell-based
Procedure: as §1, §2

[1] = system: C. albicans (Robin) ATCC200955; test: Minimal inhibitory concentration (MIC), C. albicans ATCC200955; assay type: cell-based; conditions: C. albicans ATCC200955 (Amp-B non-sensitive); Table 3b
Procedure: as §2

C. tropicalis ATCC200956 = test: Minimal inhibitory concentration (MIC), C. tropicalis ATCC200956; assay type: cell-based; conditions: C. tropicalis ATCC200956 (Amp-B non-sensitive); Table 3b
Procedure: as §2, with “Overnight cultures of C. albicans were adjusted to an optical density at 600 nm of 0.1 and incubated with Amphotericin polymers, which were serially diluted 1:2 from 2500-2.44 μg/ml, for 16 hours in a 96 well plate.” left out

[2] = system: Aspergillus flavus ATCC16883; test: Minimal inhibitory concentration (MIC), A. flavus ATCC16883; assay type: cell-based; conditions: A. flavus ATCC 16883
Procedure: as §2

[3] = system: Fusarium keratoplasticum ATCC36031; test: Minimal inhibitory concentration (MIC), F. keratoplasticum ATCC36031; assay type: cell-based; conditions: F. keratoplasticum ATCC 36031
Procedure: as §2

human donor corneas = conditions: 2.5 ma ml^−1, Alamar Blue, p<0.01
Procedure: Epithelial cell/cornea viability was determined using Alamar Blue reagent (5 μg ml^−1) dissolved in PBS. Cells/corneas were incubated with Alamar Blue for 30 minutes and the fluorescence of the solution determined at 570 nm excitation and 585 nm emission (Infinite 200, Tecan). Data for each polymer is presented as percentage viability relative to an untreated control. Each assay was performed in triplicate and data represents the mean±SD from three independent experiments.
The examination of the cytotoxicity was further examined on ex vivo human corneas.

[4] = literature range; cited from earlier work
[5] = physiological pH; stated as well known; cited from earlier work
[6] = system: rabbit limbal epithelial cells; test: Rabbit limbal epithelial cell viability (Alamar Blue); conditions: p<0.01
Procedure: Tissue was immersed in 2.5 mg ml^−1 (w/v) dispase II solution in DMEM for 1 hour at 37° C. The limbal rims were subsequently scraped gently using forceps to remove the epithelial cells. The dispase-cell suspension was centrifuged at 200 g for 5 minutes and re-suspended in culture medium containing DMEM: Ham's F12 (1:1) supplemented with 10% foetal calf serum, 100 U ml^−1 penicillin and 100 U ml^−1 streptomycin, 2.5 μg ml^−1 Amp−B, 5 μg ml^−1 insulin and 10 ng ml^−1 epidermal growth factor. Cells were cultured with irradiated 3T3-mouse fibroblasts at a cell density of 2.4×10^4 cells cm^−2 in culture medium. Cells were not used beyond passage 3. For experiments, cells were seeded into 24 well-plates at 5×10^4 cells per well and cultured for 24 hours.
Prior to determining the viability of rabbit limbal epithelial cells, cells were washed 3× with phosphate-buffered saline (PBS, 0.01M, pH 7.4) to remove residual antimicrobials. […] Epithelial cell/cornea viability was determined using Alamar Blue reagent (5 μg ml^−1) dissolved in PBS. Cells/corneas were incubated with Alamar Blue for 30 minutes and the fluorescence of the solution determined at 570 nm excitation and 585 nm emission (Infinite 200, Tecan). Data for each polymer is presented as percentage viability relative to an untreated control. […]

[7] = from weight based MIC and molar density

In the case of `C[C@@H]1[C@H](O)[C@@H](C)/C=C/C=C/C=C/C=C/C=C/C=C/C=C/[C@H](O[C@@H]2O[C@H](C)[C@@H](O)[C@H](N)[C@@H]2O)C[C@@H]2O[C@](O)(C[C@@H](O)C[C@@H](O)[C@H](O)CC[C@@H](O)C[C@@H](O)CC(=O)O[C@H]1C)C[C@H](O)[C@H]2C(=O)O` [Amp-B, amphotericin B], the “Weight based MIC” value (C. albicans SC5314; Table 3b) is reported as 0.4 µg·mL, the “Molar MIC” value (C. albicans SC5314; from weight based MIC and molar density of Amp-B groups) is reported as 500 µM and the “Weight based MIC” value (C. albicans ATCC90028; Table 3b) is reported as 0.5 µg·mL. The “Molar MIC” value (C. albicans ATCC90028; [7]) was 4800 µM, the “Weight based MIC” value [1] was >2500 µg·mL and the “Weight based MIC” value (C. tropicalis ATCC200956) was >2500 µg·mL. The “Weight based MIC” value ([2]; Table 3b) was 1.5 µg·mL, the “Molar MIC” value [2, 7] was 1800 µM and the “Weight based MIC” value ([3]; Table 3b) was 0.2 µg·mL. For the same compound, the “Molar MIC” value [3, 7] was 250 µM, the “Loss of corneal viability” value (human donor corneas) was “approximately 95%” and the “MIC for Amp-B” value [4] was 0.625 to 4 µg/mL. For the same compound, the “Solubility in water and saline solution” value [5] was “insoluble”, the “Metabolic activity of cells compared with the cell only control” value ([6]; 100 μg ml^−1, 24 hours) was 42.8±13.9% and the “Decrease in epithelial cell viability relative to a cell only control” value ([6]; 1 mg ml^−1, 24 hours) was “approximately 91.7%”.
